Source: patent US20240174648A1, “Small Molecule Compound” (Technoderma Medicines Pte Ltd, priority 2019, published 2024)

Tests used:
JAK1 = JAK1 (Homo sapiens, UniProt P23458); assay: JAK kinase inhibition assay (EZ Reader, peptide substrate phosphorylation) - JAK1; assay type: biochemical; settings: JAK1 kinase 20 nM; 8 concentration points, max 10 μM
Text: (§1) Assay for Identifying Inhibitory Effects of Compounds on JAK Kinases
(§2) Janus kinases (JAK), including JAK1, JAK2, JAK3 and Tyk2, transduce a cytokine-mediated signal through a JAK-STAT pathway. The kinases are 120-140 kDa in size and have 7 determined homology regions: JH1 to JH7. JH1 is an important region for enzymatic activity and has typical characteristics of tyrosine kinases. Phosphorylation of tyrosine leads to a change in the conformation of JAK protein, thereby promoting binding of substrate. The JAK-STAT system includes three main parts: receptors penetrating a cell membrane, Janus kinases binding to the receptors, and signal transducers and activators of transcription (STAT) for transmitting signals to a nucleus and DNA. When cytokines bind to receptors, JAK phosphorylates the receptors and attracts STAT proteins. The STAT proteins are also phosphorylated and combined with one another to form dimers. The dimers enter the nucleus and bind to DNA, thereby leading to gene transcription.
(§3) EZ Reader from PerkinElmer can be used to detect the phosphorylation of polypeptide substrates catalyzed by kinases. The device is based on microfluidic techniques, and can directly detect fluorescently labeled substrates and products. The separation step is achieved by controlling the pressure and electric field strength in the microfluidic chip. In kinase assays, a product conversion ratio is usually controlled to be 20-30%. A biological test is used to identify inhibitory effects of compounds on JAKs.
(§4) Compound powder was dissolved in DMSO, sealed and stored in a freezer under −20° C. The in-house compound Ref1 was used as a positive control for JAK1, JAK2 and Tyk2 tests, and Ref2 was used as a positive control for JAK3 tests.
(§5) S2.8. Assay buffer: 20 mM HEPES buffer, pH 7.4, 10 mM magnesium chloride, 0.01% bovine serum albumin BSA, 0.0005% Tween-20 and 1 mM dithiothreitol solution.
(§6) S2.9. Stop buffer: 180 mM HEPES buffer, 20 mM ethylenediaminetetraacetic acid and 0.2% coating reagent 3.
(§7) S2.10. Separation buffer: 100 mM HEPES buffer, 10 mM ethylenediaminetetraacetic acid, 0.0005% Tween 20, 0.1% coating reagent 3 and 1% dimethyl sulfoxide.
(§8) The compound was dissolved in dimethyl sulfoxide and diluted to 10 mM concentration, a certain volume of solution was taken and diluted to 0.6 mM concentration, 10 μL of the 0.6 mM dilution was added to a 384-well microplate, and then was diluted 3-fold with a total of 8 concentration points.
(§9) Positive control (HPE1): Ref1, final concentration: 10 μM […]
(§10) Negative control (ZPE): DMSO, final content: 1.6%
(§11) Compounds: maximum final concentration: 10 μM; 3-fold dilution, 8 concentration points and 2 duplicates.
(§12) S4.1. 250 nL of the compound was added to each well of the assay microplate by using ECHO, and centrifuged at 1000 rpm for 1 minute.
(§13) S4.2. 5 μL of the assay buffer was added and agitated for a few seconds to fully dissolve the compound.
(§14) S4.3. 5 μL of 3× substrate solution and 5 μL of 3× kinase solution were added and centrifuged at 800 rpm for 1 minute.
(§15) S4.4. Final concentrations of JAK1, JAK2, JAK3 and Tyk2 kinases in the reaction system were 20 nM, 1 nM, 1 nM and 1 nM respectively.
(§16) S4.5. Incubation at room temperature, where kinases had time differences, and different batches of kinases had time differences.
(§17) S4.6. When 20%-30% of the reaction completed, 15 μL of stop buffer was added to stop the reaction, and centrifuged at 1000 rpm for 2 minutes.
(§18) S4.7. The microplates were placed on EZ Reader for reading.
(§19) S4.8. Readings on EZ Reader were calculated by using a peak height, where product conversion ratio (%)=product/(product+substrate)*100.
(§20) 5. Data Processing: IC50 calculation
(§21) A graphing software Xlfit was used to form a concentration curve of the test compound, and an IC50 value was calculated.
(§22) “A” means “≥10 μM”; “B” means “≥1 μM and <10 μM”; “C” means “≥0.1 μM and <1 μM”; and “D” means “<0.1 μM”.

Tyk2 = Tyk2 (Homo sapiens, UniProt P29597); assay: JAK kinase inhibition assay (EZ Reader, peptide substrate phosphorylation) - Tyk2; assay type: biochemical; settings: Tyk2 kinase 1 nM; 8 concentration points, max 10 μM
Tyk2, sequence (P29597 whole entry): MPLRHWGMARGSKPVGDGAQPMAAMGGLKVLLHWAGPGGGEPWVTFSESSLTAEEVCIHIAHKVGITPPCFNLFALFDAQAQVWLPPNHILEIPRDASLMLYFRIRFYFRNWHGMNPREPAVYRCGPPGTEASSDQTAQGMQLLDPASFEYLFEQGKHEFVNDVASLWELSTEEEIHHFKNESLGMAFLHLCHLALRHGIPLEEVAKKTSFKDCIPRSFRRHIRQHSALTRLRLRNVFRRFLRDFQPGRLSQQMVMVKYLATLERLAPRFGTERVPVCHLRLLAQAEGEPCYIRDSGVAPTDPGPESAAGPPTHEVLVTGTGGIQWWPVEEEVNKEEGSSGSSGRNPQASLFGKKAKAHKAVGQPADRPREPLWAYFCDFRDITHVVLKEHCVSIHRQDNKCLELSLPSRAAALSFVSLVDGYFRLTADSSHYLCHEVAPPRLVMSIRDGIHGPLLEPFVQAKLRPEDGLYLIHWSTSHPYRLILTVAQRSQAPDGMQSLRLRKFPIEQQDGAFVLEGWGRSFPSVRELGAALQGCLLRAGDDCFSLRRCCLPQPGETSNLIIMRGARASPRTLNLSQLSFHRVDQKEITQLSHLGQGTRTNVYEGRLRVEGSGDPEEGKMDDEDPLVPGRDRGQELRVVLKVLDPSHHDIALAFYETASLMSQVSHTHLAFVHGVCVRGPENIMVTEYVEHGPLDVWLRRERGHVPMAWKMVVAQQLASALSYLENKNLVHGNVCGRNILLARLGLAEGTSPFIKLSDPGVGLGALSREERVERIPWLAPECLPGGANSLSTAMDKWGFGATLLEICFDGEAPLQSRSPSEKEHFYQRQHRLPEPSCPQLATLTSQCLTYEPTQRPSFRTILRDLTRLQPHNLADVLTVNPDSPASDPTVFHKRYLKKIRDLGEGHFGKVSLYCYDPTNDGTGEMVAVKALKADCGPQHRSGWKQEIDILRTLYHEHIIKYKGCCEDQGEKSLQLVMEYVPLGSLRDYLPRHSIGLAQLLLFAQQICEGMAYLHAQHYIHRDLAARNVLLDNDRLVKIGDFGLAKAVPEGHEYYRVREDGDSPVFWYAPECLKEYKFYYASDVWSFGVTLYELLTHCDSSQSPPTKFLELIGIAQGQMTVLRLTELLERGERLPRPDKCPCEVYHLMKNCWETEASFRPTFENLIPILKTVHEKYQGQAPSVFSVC
Text: as §1, §2, §3, §4, §5, §6, §7, §8, §9, §10, §11, §12, §13, §14, §15, §16, §17, §18, §19, §20, §21, §22

JAK1, sequence (P23458 whole entry): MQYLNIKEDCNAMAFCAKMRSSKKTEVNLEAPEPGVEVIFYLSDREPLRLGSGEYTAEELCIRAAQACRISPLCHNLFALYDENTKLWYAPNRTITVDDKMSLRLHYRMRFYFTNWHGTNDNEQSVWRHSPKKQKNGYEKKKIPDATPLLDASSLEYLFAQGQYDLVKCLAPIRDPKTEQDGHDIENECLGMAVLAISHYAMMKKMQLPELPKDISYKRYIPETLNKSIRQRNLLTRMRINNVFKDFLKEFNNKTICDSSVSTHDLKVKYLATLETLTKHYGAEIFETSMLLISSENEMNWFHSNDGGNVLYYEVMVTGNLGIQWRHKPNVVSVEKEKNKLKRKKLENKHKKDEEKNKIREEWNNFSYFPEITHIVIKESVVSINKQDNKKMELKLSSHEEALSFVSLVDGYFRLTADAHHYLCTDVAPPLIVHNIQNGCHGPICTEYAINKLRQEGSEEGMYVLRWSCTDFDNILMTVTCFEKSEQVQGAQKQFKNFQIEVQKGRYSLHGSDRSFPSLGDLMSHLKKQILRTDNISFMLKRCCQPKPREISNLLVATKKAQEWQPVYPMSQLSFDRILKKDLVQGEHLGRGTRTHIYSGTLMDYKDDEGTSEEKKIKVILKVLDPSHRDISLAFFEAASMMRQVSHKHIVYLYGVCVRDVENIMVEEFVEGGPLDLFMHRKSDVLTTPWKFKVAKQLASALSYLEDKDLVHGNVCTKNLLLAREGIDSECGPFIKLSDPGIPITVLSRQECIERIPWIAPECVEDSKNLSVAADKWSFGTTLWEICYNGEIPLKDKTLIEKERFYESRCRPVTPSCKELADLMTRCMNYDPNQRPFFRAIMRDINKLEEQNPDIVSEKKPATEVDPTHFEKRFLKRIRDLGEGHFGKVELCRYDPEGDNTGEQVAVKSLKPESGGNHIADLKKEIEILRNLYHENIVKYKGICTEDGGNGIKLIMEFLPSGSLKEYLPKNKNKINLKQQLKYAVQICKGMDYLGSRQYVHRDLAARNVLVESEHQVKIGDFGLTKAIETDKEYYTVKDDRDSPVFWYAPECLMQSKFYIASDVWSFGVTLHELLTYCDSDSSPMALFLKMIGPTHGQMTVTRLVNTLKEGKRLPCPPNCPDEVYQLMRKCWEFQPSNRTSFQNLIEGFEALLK

SMILES	IC50 (JAK1) [µM]	IC50 (Tyk2) [µM]
CCOCCS(=O)(=O)Nc1ccc(-c2ccnc(Nc3cnn(C)c3)n2)cn1 [TDM-180877, 2-ethyoxyl-N-(5-(2-((1-methyl-1H-pyrazol-4-yl)amino)pyrimidin-4-yl)pyridin-2-yl)ethanesulfonamide]	0.1 to 1	1 to 10
Cn1cc(Nc2nccc(-n3ccc4c(NC(=O)CC#N)cccc43)n2)cn1 [TDM-180881, 2-cyano-N-(1-(2-((1-methyl-1H-pyrazol-4-yl)amino)pyrimidin-4-yl)-1H-indol-4-yl)acetamide]	< 0.1	0.1 to 1
Cn1cc(Nc2nccc(-n3ccc4c(NC(=O)CC(F)(F)F)cccc43)n2)cn1 [TDM-180882, 3,3,3-trifluoro-N-(1-(2-((1-methyl-1H-pyrazol-4-yl)amino)pyrimidin-4-yl)-1H-indol-4-yl)propanamide]	< 0.1	0.1 to 1
Cn1cc(Nc2nccc(-c3ccc(NC(=O)C4CC4)c4[nH]ncc34)n2)cn1 [TDM-180884, N-(4-(2-((1-methyl-1H-pyrazol-4-yl)amino)pyrimidin-4-yl)-1H-indazol-7-yl)cyclopropanemethane]	0.1 to 1	0.1 to 1
Cn1cc(Nc2nccc(-n3ccc4c(NC(=O)C5CC5(F)F)cccc43)n2)cn1 (centres unmarked) [TDM-180885, 2,2-difluoro-N-(1-(2-((1-methyl-1H-pyrazol-4-yl)amino)pyrimidin-4-yl)-1H-indol-4-yl)cyclopropane-1-carboxamide]	< 0.1	0.1 to 1
Cn1cc(Nc2nccc(-c3cnc(NC(=O)C4CC4(F)F)nc3)n2)cn1 (centres unmarked) [TDM-180886, 2,2-difluoro-N-(2-((1-methyl-1H-pyrazol-4-yl)amino)-[4,5′-bipyrimidin]-2′-yl)cyclopropane-1-carboxamide]	< 0.1	0.1 to 1
Cn1cc(Nc2nccc(-c3cnc(NC(=O)CC(F)(F)F)nc3)n2)cn1 [TDM-180887, 3,3,3-trifluoro-N-(2-((1-methyl-1H-pyrazol-4-yl)amino)-[4,5′-bipyrimidin]-2′-yl)propanamide]	0.1 to 1	1 to 10
Cn1cc(Nc2nccc(-c3cnc(NC(=O)C4CC4(F)F)c(F)c3)n2)cn1 (centres unmarked) [TDM-180888, 2,2-difluoro-N-(3-fluoro-5-(2-((1-methyl-1H-pyrazol-4-yl)amino)pyrimidin-4-yl)pyridin-2-yl)cyclopropanecarboxamide]	0.1 to 1	0.1 to 1
Cn1cc(Nc2nccc(-c3cnc(NC(=O)CC(F)(F)F)c(F)c3)n2)cn1 [TDM-180889, 3,3,3-trifluoro-N-(3-fluoro-S-(2-((1-methyl-1H-pyrazol-4-yl)amino)pyrimidin-4-yl)pyridin-2-yl)propanamide]	0.1 to 1	1 to 10
Cn1cc(Nc2nccc(-c3cnc(NC(=O)CC#N)c(F)c3)n2)cn1 [TDM-180890, 2-cyano-N-(3-fluoro-5-(2-((1-methyl-1H-pyrazol-4-yl)amino)pyrimidin-4-yl)pyridin-2-yl)acetamide]	0.1 to 1	1 to 10
Cn1cc(Nc2nccc(-c3cnc(NC(=O)C4CC4)c(F)c3)n2)cn1 [TDM-180891, N-(3-fluoro-5-(2-((1-methyl-1H-pyrazol-4-yl)amino)pyrimidin-4-yl)pyridin-2-yl)cyclopropanecarboxamide]	1 to 10	1 to 10
Cn1cc(Nc2nccc(-c3cnc(NC(=O)C4CC4(F)F)cn3)n2)cn1 (centres unmarked) [TDM-180892, 2,2-difluoro-N-(5-(2-((1-methyl-1H-pyrazol-4-yl)amino)pyrimidin-4-yl)pyrazin-2-yl)cyclopropane-1-formamide]	0.1 to 1	1 to 10
CCCS(=O)(=O)Nc1ccc(-c2ccnc(Nc3cnn(C)c3)n2)cc1 [TDM-180893, N-(4-(2-((1-methyl-1H-pyrazol-4-yl)amino)pyrimidin-4-yl)phenyl)propane-1-sulfonamide]	0.1 to 1	0.1 to 1
Cn1cc(Nc2nccc(-c3ccc(NS(=O)(=O)CCc4ccccc4)cc3)n2)cn1 [TDM-180894, N-(4-(2-((1-methyl-1H-pyrazol-4-yl)amino)pyrimidin-4-yl)phenyl)-2-phenylethane-1-sulfonamide]	0.1 to 1	0.1 to 1
Cn1cc(Nc2nccc(-c3ccc(NS(=O)(=O)CCC(F)(F)F)nc3)n2)cn1 [TDM-180895, 3,3,3-trifluoro-N-(5-(2-((1-methyl-1H-pyrazol-4-yl)amino)pyrimidin-4-yl)pyridin-2-yl)propane-1-sulfonamide]	1 to 10	≥ 10
Cn1cc(Nc2nccc(-c3ccc(NS(=O)(=O)CCCF)cc3)n2)cn1 [TDM-180896, 3-fluoro-N-(4-(2-((1-methyl-1H-pyrazol-4-yl)amino)pyrimidin-4-yl)phenyl)propane-1-sulfonamide]	0.1 to 1	0.1 to 1
Cn1cc(Nc2nccc(-c3ccc(NS(=O)(=O)Cc4ccccc4)nc3)n2)cn1 [TDM-180897, N-(5-(2-((1-methyl-1H-pyrazol-4-yl)amino)pyrimidin-4-yl)pyridin-2-yl)-1-phenylmethanesulfonamide]	0.1 to 1	0.1 to 1
Cn1cc(Nc2nccc(-c3ccc(NC(=O)CC#N)c4[nH]ncc34)n2)cn1 [TDM-180898, 2-cyano-N-(4-(2-((1-methyl-1H-pyrazol-4-yl)amino)pyrimidin-4-yl)-1H-indazole-7-yl)acetamide]	0.1 to 1	0.1 to 1
Cn1cc(Nc2nccc(-c3ccc(NC(=O)C4CC4(F)F)c4[nH]ncc34)n2)cn1 (centres unmarked) [TDM-180899, 2,2-difluoro-N-(4-(2-((1-methyl-1H-pyrazol-4-yl)amino)pyrimidin-4-yl)-1H-indazol-7-yl)cyclopropane-1-carboxamide]	< 0.1	0.1 to 1
Cn1cc(Nc2nccc(-c3ccc(NC(=O)CC(F)(F)F)c4[nH]ncc34)n2)cn1 [TDM-180900, 3,3,3-trifluoro-N-(4-(2-((1-methyl-1H-pyrazol-4-yl)amino)pyrimidin-4-yl)-1H-indazol-7-yl)propionamide]	< 0.1	0.1 to 1
CCCS(=O)(=O)Nc1ccc(-c2ccnc(Nc3cnn(C)c3)n2)cn1 [TDM-180901, N-(5-(2-((1-methyl-1H-pyrazol-4-yl)amino)pyrimidin-4-yl)pyridin-2-yl)propane-1-sulfonamide]	1 to 10	≥ 10
Cn1cc(Nc2nccc(-c3cnc(NC(=O)CC#N)nc3)n2)cn1 [TDM-180902, 2-cyano-N-(2-((1-methyl-1H-pyrazol-4-yl)amino)-[4,5′-bipyrimidin]-2′-yl)acetamide]	1 to 10	1 to 10
Cn1cc(Nc2nccc(-c3ccc(NS(=O)(=O)CCCF)nc3)n2)cn1 [TDM-180903, 3-fluoro-N-(5-(2-((1-methyl-1H-pyrazol-4-yl)amino)pyrimidin-4-yl)pyridin-2-yl)propane-1-sulfonamide]	1 to 10	1 to 10
Cn1cc(Nc2nccc(-c3cnc(NC(=O)C4CC4)nc3)n2)cn1 [TDM-180904, N-(2-((1-methyl-1H-pyrazol-4-yl)amino)-[4,5′-bipyrimidin]-2′-yl)cyclopropanecarboxamide]	1 to 10	1 to 10
Cn1cc(Nc2nccc(-c3cnc(NC(=O)CC(F)(F)F)cn3)n2)cn1 [TDM-180905, 3,3,3-trifluoro-N-(5-(2-((1-methyl-1H-pyrazol-4-yl)amino)pyrimidin-4-yl)pyrazin-2-yl)propanamide]	0.1 to 1	1 to 10
